Results from publication PMC12851007 (Angewandte Chemie (International Ed. in English), 2025).
Where a SMILES comes first, the peptide text is derived from it.

Legend:
[1] = CX4/LCG supramolecular tandem membrane assay, EYPC vesicles; type: in vitro ADME; details: 25 µM lipid, EYPC⊃CX4/LCG-LUVs, 10 mM Hepes, pH 7.5, 25 °C; fractional activity at 590 s, Hill fit; error = SD of fit, n = 1
Procedure: Membrane Activity M easurements
Vesicle preparation. 100 µ L of a solution of 25 mg/ml of POPC in chloroform or 200 µ L of a solution of 25 mg/ml of EYPC in chloroform was purged with nitrogen and dried overnight under hi gh vacuum. The thin lipid film was rehydrated with 1 ml reh ydrati on buffer (= inside buffer, see Tabl e S2 ) b y agitation at room temperature for 30min and then subjected to 2 0 freeze- th aw c ycles (freezing in liquid nitro gen and thawing at 40 °C). […]
Ta b l e S 2. Combinations of lipids and inside and outside buffer for CX4/LCG -LUVs.
No. Lipid Inside buffer = rehydration buffer Outside buffer […]
Vesicle quality control. T o ensure the absence of the CX4/ LCG reporter pair in the ex travesicular ph ase, 20 µL of the collected liposome fr action w as diluted to 2 ml with outside buffer and the fluor escen ce (λ exc = 369 nm; λ em = 502 nm) was recorded during the addition of […]
A co nstant fluorescenc e intensity durin g the addition of the stron gl y bindin g sp ermine verified the complete removal o f unencapsulated materi al. The size distribution of the liposomes was confirmed b y DLS to be unimodal and in the range of 120 to 150 nm diameter. […] Subsequently, the time-dependent change in fluorescence intensity (λ exc = 369 nm; λ em = 502 nm) was record ed during addition of 20 µ L of peptide stock solutions of varying concentrations at 60 s. […]

[2] = CX4/LCG tandem membrane assay with subsequent addition of spermine (transient vs stable pores); type: in vitro ADME; details: TP10 0.2 µM or melittin 5 nM at 60 s, spermine 20 µM at 340 s, 10 mM Hepes, 175 mM glucose, pH 7.5
Procedure: This means that TP10 renders the vesicle membranes only transiently permeable, while after some time, the pores “close”, most likely due to equilibration of the inside and outside concentrations of TP10. At sufficiently low TP10 concentrations, the vesicles have consequently released only some of their content after a certain incubation time and no further release of encapsulated compounds is observed thereafter. The transient nature of the TP10 pores was also confirmed herein by the CX4/LCG tandem membrane assay (Figure 4, black line). […] At this point of time, the TP10 pores should be either closed, or there should be some remaining stable equilibrium pores, which are too small to allow efflux of relatively large CX4 and/or LCG (MW > 500 Da), but sufficiently large to allow CF efflux (MW = 376 Da). Closed pores would refer to the previously reported graded mechanism, whereas the latter would point toward an all‐or‐none release mechanism.^[ [12], [70] ^] […] The newly developed assay has therefore the added capacity to afford more fine‐grained mechanistic information on membrane activity.
The blue trace is a control to illustrate full dissociation of the CX4/LCG complex during vesicle lysis by TX‐100.
LysisLysis vesicle lysisvesicle lysis […]
calibration cocktail at 600 s. a) Original changes in fluorescence intensity of LCG ( λex = 369 nm, λem = […]

| SMILES | EC50 [1] | kind of pores (fluorescence response to spermine added after the peptide) [2] |
| --- | --- | --- |
| CC[C@H](C)[C@H](NC(=O)[C@H](CCCCN)NC(=O)[C@@H](NC(=O)[C@@H](N)CCC(N)=O)[C@@H](C)CC)C(=O)N[C@@H](Cc1c[nH]c2ccccc12)C(=O)N[C@@H](Cc1ccccc1)C(=O)N[C@@H](CCC(N)=O)C(=O)N[C@@H](CC(N)=O)C(=O)N[C@@H](CCCNC(=N)N)C(=O)N[C@@H](CCCNC(=N)N)C(=O)N[C@@H](CCSC)C(=O)N[C@@H](CCCCN)C(=O)N[C@@H](Cc1c[nH]c2ccccc12)C(=O)N[C@@H](CCCCN)C(=O)N[C@@H](CCCCN)C(=O)O (H-QIKIWFQNRRMKWKK-OH) | 14 ± 3 µM | – |
| CC[C@H](C)[C@H](NC(=O)[C@H](CCCCN)NC(=O)[C@H](CCCCN)NC(=O)[C@H](C)NC(=O)[C@H](CC(C)C)NC(=O)[C@H](C)NC(=O)[C@H](C)NC(=O)[C@H](CC(C)C)NC(=O)[C@H](C)NC(=O)[C@H](CCCCN)NC(=O)[C@H](CC(C)C)NC(=O)[C@H](CC(N)=O)NC(=O)[C@@H](NC(=O)[C@H](CCCCN)NC(=O)CNC(=O)[C@H](CC(C)C)NC(=O)[C@H](CC(C)C)NC(=O)[C@H](Cc1ccc(O)cc1)NC(=O)CNC(=O)[C@H](C)N)[C@@H](C)CC)C(=O)N[C@@H](CC(C)C)C(=O)O [TP10] | – | absence of stable TP10 pores |
